What was measured:
Experiment in all cases: relative viability (nuclei count vs DMSO), 5 days (fraction); higher = more cells survive
[1] = compound: CN(C)CC1=CC(=CC=C1)N=C(C2=CC=CC=C2)C3=C(NC4=C3C=CC(=C4)C(=O)N(C)C)O + Cc1cc(Nc2cc(N3CCN(C)CC3)nc(Sc3ccc(NC(=O)C4CC4)cc3)n2)n[nH]1 [Tozasertib] (partner 0.1 µM)
Procedure, shortened: (§1)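 Lung cancer cell lines were seeded in 1536-well plates and dosed by pin tool the next day, with either a single drug or a fixed anchor-drug dose combined with five library-drug doses (not always all listed) spaced in √10 steps. Five days later, one step fixed the cells and stained their nuclei (final 0.05% Triton X-100, 1% formaldehyde, 1 ug/ml Hoechst), and nuclei were counted on 4× images. Relative viability is the nuclei count in treated wells divided by the count in vehicle wells, and each value is the median of duplicate plates.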

[2] = compound: CN(C)CC1=CC(=CC=C1)N=C(C2=CC=CC=C2)C3=C(NC4=C3C=CC(=C4)C(=O)N(C)C)O + CC1(C)CCC(c2ccc(Cl)cc2)=C(CN2CCN(c3ccc(C(=O)NS(=O)(=O)c4ccc(N[C@H](CCN5CCOCC5)CSc5ccccc5)c(S(=O)(=O)C(F)(F)F)c4)cc3)CC2)C1 [Navitoclax] (partner 0.5 µM)
Procedure, shortened: as §1

[3] = compound: CN(C)CC1=CC(=CC=C1)N=C(C2=CC=CC=C2)C3=C(NC4=C3C=CC(=C4)C(=O)N(C)C)O + C[C@@H](Oc1cc(-c2cnn(C3CCNCC3)c2)cnc1N)c1c(Cl)ccc(F)c1Cl [Crizotinib] (partner 1 µM)
Procedure, shortened: as §1

[4] = compound: CN(C)CC1=CC(=CC=C1)N=C(C2=CC=CC=C2)C3=C(NC4=C3C=CC(=C4)C(=O)N(C)C)O + O=C(CCCCCCC(=O)Nc1ccccc1)NO [Vorinostat] (partner 1 µM)
Procedure, shortened: as §1

## HCC-15
[1]; first compound 0.08 µM
  relative viability: 0.424
[1]; first compound 0.253 µM
  relative viability: 0.387
[1]; first compound 0.8 µM
  relative viability: 0.39
[1]; first compound 2.53 µM
  relative viability: 0.365
[1]; first compound 8 µM
  relative viability: 0.453
[2]; first compound 0.08 µM
  relative viability: 0.708
[2]; first compound 0.253 µM
  relative viability: 0.705
[2]; first compound 0.8 µM
  relative viability: 0.726
[2]; first compound 2.53 µM
  relative viability: 0.731
[2]; first compound 8 µM
  relative viability: 0.667
[3]; first compound 0.08 µM
  relative viability: 0.778
[3]; first compound 0.253 µM
  relative viability: 0.832
[3]; first compound 0.8 µM
  relative viability: 0.882
[3]; first compound 2.53 µM
  relative viability: 0.889
[3]; first compound 8 µM
  relative viability: 0.888
[4]; first compound 0.08 µM
  relative viability: 0.875
[4]; first compound 0.253 µM
  relative viability: 0.821
[4]; first compound 0.8 µM
  relative viability: 0.787
[4]; first compound 2.53 µM
  relative viability: 0.868
[4]; first compound 8 µM
  relative viability: 0.89

## NCI-H1651
[1]; first compound 0.08 µM
  relative viability: 0.621
[1]; first compound 0.253 µM
  relative viability: 0.755
[1]; first compound 0.8 µM
  relative viability: 0.71
[1]; first compound 2.53 µM
  relative viability: 0.595
[1]; first compound 8 µM
  relative viability: 0.692
[2]; first compound 0.08 µM
  relative viability: 1.11
[2]; first compound 0.253 µM
  relative viability: 1.11
[2]; first compound 0.8 µM
  relative viability: 1.13
[2]; first compound 2.53 µM
  relative viability: 1.11
[2]; first compound 8 µM
  relative viability: 0.934
[3]; first compound 0.08 µM
  relative viability: 0.884
[3]; first compound 0.253 µM
  relative viability: 0.844
[3]; first compound 0.8 µM
  relative viability: 0.873
[3]; first compound 2.53 µM
  relative viability: 0.835
[3]; first compound 8 µM
  relative viability: 0.822
[4]; first compound 0.08 µM
  relative viability: 0.558
[4]; first compound 0.253 µM
  relative viability: 0.547
[4]; first compound 0.8 µM
  relative viability: 0.573
[4]; first compound 2.53 µM
  relative viability: 0.599
[4]; first compound 8 µM
  relative viability: 0.593

## NCI-H23
[1]; first compound 0.08 µM
  relative viability: 0.355
[1]; first compound 0.253 µM
  relative viability: 0.454
[1]; first compound 0.8 µM
  relative viability: 0.413
[1]; first compound 2.53 µM
  relative viability: 0.411
[1]; first compound 8 µM
  relative viability: 0.366
[2]; first compound 0.08 µM
  relative viability: 0.9
[2]; first compound 0.253 µM
  relative viability: 0.911
[2]; first compound 0.8 µM
  relative viability: 0.884
[2]; first compound 2.53 µM
  relative viability: 0.99
[2]; first compound 8 µM
  relative viability: 0.732
[3]; first compound 0.08 µM
  relative viability: 0.376
[3]; first compound 0.253 µM
  relative viability: 0.538
[3]; first compound 0.8 µM
  relative viability: 0.503
[3]; first compound 2.53 µM
  relative viability: 0.483
[3]; first compound 8 µM
  relative viability: 0.417
[4]; first compound 0.253 µM
  relative viability: 0.655
[4]; first compound 0.8 µM
  relative viability: 0.688
[4]; first compound 2.53 µM
  relative viability: 0.649
[4]; first compound 8 µM
  relative viability: 0.549

## NCI-H1355
[1]; first compound 0.08 µM
  relative viability: 0.551
[1]; first compound 0.253 µM
  relative viability: 0.616
[1]; first compound 0.8 µM
  relative viability: 0.414
[1]; first compound 2.53 µM
  relative viability: 0.539
[1]; first compound 8 µM
  relative viability: 0.428
[2]; first compound 0.08 µM
  relative viability: 1.01
[2]; first compound 0.253 µM
  relative viability: 0.87
[2]; first compound 0.8 µM
  relative viability: 0.836
[2]; first compound 2.53 µM
  relative viability: 0.93
[2]; first compound 8 µM
  relative viability: 0.866
[3]; first compound 0.08 µM
  relative viability: 1.1
[3]; first compound 0.253 µM
  relative viability: 1.05
[3]; first compound 0.8 µM
  relative viability: 1.06
[3]; first compound 2.53 µM
  relative viability: 1.03
[3]; first compound 8 µM
  relative viability: 1.06
[4]; first compound 0.08 µM
  relative viability: 0.633
[4]; first compound 0.253 µM
  relative viability: 0.688
[4]; first compound 0.8 µM
  relative viability: 0.558
[4]; first compound 2.53 µM
  relative viability: 0.608
[4]; first compound 8 µM
  relative viability: 0.576

## NCI-H596
[1]; first compound 0.08 µM
  relative viability: 0.898
[1]; first compound 0.253 µM
  relative viability: 0.851
[1]; first compound 0.8 µM
  relative viability: 0.826
[1]; first compound 2.53 µM
  relative viability: 0.847
[1]; first compound 8 µM
  relative viability: 0.906
[2]; first compound 0.08 µM
  relative viability: 0.967
[2]; first compound 0.253 µM
  relative viability: 0.93
[2]; first compound 0.8 µM
  relative viability: 0.911
[2]; first compound 2.53 µM
  relative viability: 0.977
[2]; first compound 8 µM
  relative viability: 0.83
[3]; first compound 0.08 µM
  relative viability: 1
[3]; first compound 0.253 µM
  relative viability: 0.952
[3]; first compound 0.8 µM
  relative viability: 1.04
[3]; first compound 2.53 µM
  relative viability: 0.968
[3]; first compound 8 µM
  relative viability: 0.785
[4]; first compound 0.08 µM
  relative viability: 0.575
[4]; first compound 0.253 µM
  relative viability: 0.72
[4]; first compound 0.8 µM
  relative viability: 0.585
[4]; first compound 2.53 µM
  relative viability: 0.554
[4]; first compound 8 µM
  relative viability: 0.862

## NCI-H2170
[1]; first compound 0.08 µM
  relative viability: 0.749
[1]; first compound 0.253 µM
  relative viability: 0.8
[1]; first compound 0.8 µM
  relative viability: 0.586
[1]; first compound 2.53 µM
  relative viability: 0.679
[1]; first compound 8 µM
  relative viability: 0.609
[2]; first compound 0.08 µM
  relative viability: 0.64
[2]; first compound 0.253 µM
  relative viability: 0.583
[2]; first compound 0.8 µM
  relative viability: 0.307
[2]; first compound 2.53 µM
  relative viability: 0.565
[2]; first compound 8 µM
  relative viability: 0.36
[3]; first compound 0.08 µM
  relative viability: 1.2
[3]; first compound 0.253 µM
  relative viability: 1.15
[3]; first compound 0.8 µM
  relative viability: 0.934
[3]; first compound 2.53 µM
  relative viability: 1.11
[3]; first compound 8 µM
  relative viability: 0.922
[4]; first compound 0.08 µM
  relative viability: 0.93
[4]; first compound 0.253 µM
  relative viability: 0.884
[4]; first compound 0.8 µM
  relative viability: 0.693
[4]; first compound 2.53 µM
  relative viability: 0.829
[4]; first compound 8 µM
  relative viability: 0.643

## NCI-H2085
[1]; first compound 0.08 µM
  relative viability: 0.862
[1]; first compound 0.253 µM
  relative viability: 0.901
[1]; first compound 0.8 µM
  relative viability: 0.793
[1]; first compound 2.53 µM
  relative viability: 0.781
[1]; first compound 8 µM
  relative viability: 0.829
[2]; first compound 0.08 µM
  relative viability: 1.24
[2]; first compound 0.253 µM
  relative viability: 1.16
[2]; first compound 0.8 µM
  relative viability: 1.06
[2]; first compound 2.53 µM
  relative viability: 1.16
[2]; first compound 8 µM
  relative viability: 1.18
[3]; first compound 0.08 µM
  relative viability: 0.849
[3]; first compound 0.253 µM
  relative viability: 0.903
[3]; first compound 0.8 µM
  relative viability: 0.702
[3]; first compound 2.53 µM
  relative viability: 0.947
[3]; first compound 8 µM
  relative viability: 1.03
[4]; first compound 0.08 µM
  relative viability: 0.785
[4]; first compound 0.253 µM
  relative viability: 0.777
[4]; first compound 0.8 µM
  relative viability: 0.785
[4]; first compound 2.53 µM
  relative viability: 0.819
[4]; first compound 8 µM
  relative viability: 0.773

From the supplement of paper PMC10307832
